Measured values: US6852754B1, “Biologically active linderazulene terpenes” (Harbor Branch Oceanographic Institution, Inc., priority 2004, dated 2005)

Columns and labels:
[1] = tested on: PANC-1 human pancreatic cell line; experiment: Antiproliferative MTT assay, PANC-1 cells, 72 hours exposure; assay type: cell-based
Experimental: (§1) Compounds I and II was analyzed as to their effect on the proliferation of PANC-1 human pancreatic and P388 murine leukemia cell lines. P388 cells were obtained from Dr. R. Camalier, National Cancer Institute, Bethesda, Md., and PANC-1 cells were obtained from American Type Culture Collection, Rockville, Md. All cell lines were maintained in tissue culture medium (TCM; Roswell Park Memorial Institute RPMI 1640 supplemented with 100 U/mL penicillin, […] streptomycin, […] 1-glutamine, 18 mM HEPES, 0.05 mg/mL gentamicin (Life Technologies, Gaithersburg, Md.) and 10% fetal bovine serum) and cultured in plastic tissue culture flasks at 37° C. in humidified air containing 5% CO2. Stock cultures of P388 cells were subcultured 1:20 in fresh TCM every 2 to 3 days. Stock cultures of […] cells were subcultured 1:10 every 3 to 4 days. To assess the antiproliferative effects of agents against the cells, […] cultures (96-well tissue culture plates, Nunc, Denmark) were established at 1×10^5 cells/mL in TCM or TCM containing the test agent at 0.03-5.0 μg/mL. After 48-h exposures, P388 cells were enumerated using 3-[4,5-dimethylthiazol-2-yl]-2,5-diphenyltetrazolium bromide (MTT) as described in the literature (M. C. Alley, et al., Cancer Res. 48:589, 1988). […] The results were expressed as percent inhibition compared to the negative (no drug) control. […]

[2] = tested on: P388 murine leukemia cell line; experiment: Antiproliferative MTT assay, P388 cells, 48-h exposure; assay type: cell-based; conditions: Mus musculus, read-out: P388 (IC50 μg/ml)
Experimental: as §1

Compound	PANC-1 (IC50 μg/ml) [1]	IC50 [2] [µg/mL]	IC50 ([1]; Homo sapiens, read-out: PANC-1 (IC50 μg/ml)) [µg/mL]
Cc1cc2occc2cc2c(C=O)ccc1-2 [11-formyllinderazulene (II), 11-formyllinderazulene]	No inhibition of cell	15.6	–
COC(=O)c1ccc2c(C)cc3occc3cc1-2 [11-carbomethoxylinderazulene (I), 11-carbomethoxylinderazulene]	–	2.7	18.7
